US12383511B2, “Osteogenic agents and uses thereof” (GoldPorp Pharma Limited, priority 2022, dated 2025)
Blank lines part the entries; values can stand above or below the compound they belong to.

Tests used:
Type in all cases: cell-based
MDA-MB-231 cells = test: BrdU incorporation proliferation assay; conditions: 5 μM
MCF7 cells = test: BrdU incorporation proliferation assay
Source text: The effect of F compounds on estrogen dependent cancer cells was investigated (FIG. 8). […] The fold increase of MCF7 proliferation was similar to that induced by estradiol treatment.

[1] = system: MC3T3-E1 osteoblast cells; test: Osteoblast mineralization assay (Alizarin Red staining); conditions: 5 μM compared with […]
Experimental: MC3T3-E1 cells were seeded at 1×10^5 cells per well in 24-well plates. […] […] Cells were washed twice with PBS and fixed with 10% formalin for 1 hour. Fixed cell was washed twice with distilled water and stained with 2% Alizarin Red S solution (pH 4.1) in the dark for 1 hour. Stain solution was removed and washed 4 times with distilled water.

[2] = system: estrogen responsive gene elements (ERE); test: pERE-Luc reporter gene assay in MC3T3-E1; conditions: ICI182780 10 nM and 1 μM
Experimental: MC3T3-E1 were seeded at 9.0×10^4 per well in 24-well plates. Twenty-four hours after cell seeding, cells were transiently transfected with 500 ng pERE-Luc (contains three repeats of estrogen-response element) by lipofectamine 2000 (Life Technologies) according to manufacturers' instruction (lipofectamine:DNA=3:1).

MC3T3-E1 osteoblasts = test: Alkaline phosphatase (ALP) activity assay in MC3T3-E1 osteoblasts; conditions: for effect of antagonist on F4-induced ALP activity: 5 μM F4
Experimental: MC3T3-E1 (passage 4-10) was maintained in Minimal Essential Media (MEM) supplemented with 10% FBS, 1 mM Sodium Pyruvate and 1% 100 ug/ml penicillin-streptomycin (100 U/ml). All reagents are from GIBCO Life Technologies.
MC3T3-E1 cells were seeded at 1×10^5 cells per well in 24-well plate. […] After treatment, cells were washed twice with PBS and lysed with buffer contains 50 mM Tris pH7.4 and 0.1% Triton X-100. After 3 freeze-thaw cycles, 40 ul of cell lysate was mixed with 50 ul of 2× Assay buffer (2-Amino-2methyl-1-propanol, pH 10.4 with 4 mM MgCl2) and 10 ul of 0.1M 4-Nitrophenyl phosphate. Incubated in 37° C. and recorded at OD410.

p38 = test: Western blot of phosphorylated p38 and total p38; conditions: with 5 μM F4, 15 and 30 min, MC3T3-E1 osteoblasts
Experimental: MC3T3-E1 were lysed with 20 mM Tris pH8.0, 137 mM NaCl, 2 mM EDTA, 1% Triton X-100 and 10% Glycerol with protease inhibitor cocktail (Roche, complete). Protein concentration was determined by Bradford Protein Assay (Bio-Rad) and equal amount of proteins (30 μg) was resolved by SDS-PAGE and transferred onto PVDF membrane. The membrane was blocked with 3% BSA in Tris-buffered saline containing 0.1% Tween 20 and incubated with primary antibody (1:1000) overnight at 4° C. then incubated with HRP-linked secondary antibody for 1 h. Chemiluminescence signals were detected using enhanced chemiluminescence reagents (GE Healthcare) on X-Ray films (Fujifilm).
The levels of phosphorylated p38 and total p38 were determined by immunoblotting experiments.

SMILES: C=Cc1cc(O)cc2ccc3c(C)c(O)ccc3c12 [F5, dehydroeffusol]
cell proliferation induced by 17beta-estradiol in MDA-MB-231 cells (ER negative) (MDA-MB-231 cells): had no effect | MCF7 cell proliferation induced by estradiol (MCF7 cells; 5 μM): significantly suppress | MCF7 cell proliferation (MCF7 cells; dose of 5 μM or higher): inhibited the proliferation | MCF7 cell proliferation (MCF7 cells; low dose of 0.3 μM): induced MCF7 cell proliferation | calcium deposition at higher vs lower concentration [1]: More calcium deposition

effect of antagonist on F4-induced ALP activity (MC3T3-E1 osteoblasts; day 7): inhibited
SMILES: C[C@]12CC[C@@H]3c4ccc(O)cc4C[C@@H](CCCCCCCCC[S+]([O-])CCCC(F)(F)C(F)(F)F)[C@H]3[C@@H]1CC[C@@H]2O (some centres unmarked) [ICI182780, reference compound]
effect of antagonist on F4-stimulated ERE promoter activity ([2]; 5 μM F4): could be inhibited | effect of antagonist on estradiol-stimulated ERE-driven promoter activity [2]: inhibited | effect of antagonist on F4-induced ALP activity (MC3T3-E1 osteoblasts; day 4): no effect

SMILES: C[S+]([O-])c1ccc(-c2nc(-c3ccncc3)c(-c3ccc(F)cc3)[nH]2)cc1 (centres unmarked) [SB203580, reference compound]
levels of phosphorylated p38 in F4-treated cells on addition of inhibitor (p38): reduced the levels of phosphorylated p38 | effect of MAP kinase inhibitor on F4-induced increases in ALP activity (MC3T3-E1 osteoblasts; with 5 μM F4, 2 days): significantly inhibited
